Data taken from article PMC10342010, “Djakonoviosides A, A1, A2, B1–B4 — Triterpene Monosulfated Tetra- and Pentaosides from the Sea Cucumber Cucumaria djakonovi: The First Finding of a Hemiketal Fragment in the Aglycones; Activity against Human Breast Cancer Cell Lines” (International Journal of Molecular Sciences, 2023).
Where a name gives a salt, the structure may show the parent alone.

Key:
[1] = Cytotoxic activity (MTS assay); format: cell-based, human; settings: human
Method: (§1) Then, the cells were incubated with 10 µL MTS ([3-(4,5-dimethylthiazol-2-yl)-5-(3-carboxymethoxyphenyl)-2-(4-sulfophenyl)-2H-tetrazolium) for 4 h, and the absorbance in each well was determined at 490/630 nm with a PHERA star FS plate reader (BMG Labtech, Ortenberg, Germany). The experiments were conducted in triplicate.

human erythrocytes = experiment: Hemolytic activity; format: cell-based; settings: for ED50, Erythrocytes: 1 h incubation at 37 °C, 50% hemolysis
Method: Erythrocytes were obtained from human blood (AB(IV) Rh+) by centrifugation with phosphate-buffered saline (PBS) (pH 7.4) at 4 °C for 5 min by 450 g on a LABOFUGE 400R centrifuge (Heraeus, Hanau, Germany) three times. Then, the erythrocytes residue was resuspended in ice cold phosphate saline buffer (pH 7.4) to a final optical density of 1.5 at 700 nm and kept on ice. For the hemolytic assay, 180 µL of erythrocyte suspension was mixed with 20 µL of test compound solution, as well as control, chitonoidoside L [33], in V-bottom 96-well plates. After 1 h of incubation at 37 °C, the plates were exposed to centrifugation for 10 min at 900 g in a laboratory LMC-3000 centrifuge (Biosan, Riga, Latvia). Then, 100 µL of supernatant was carefully decanted and transferred into new flat plates. The values of the lysis of the erythrocytes were found by measuring the concentration of hemoglobin in the supernatant with a Multiskan FC microplate photometer (Thermo Fisher Scientific, Waltham, MA, USA); λ = 570 nm. […] All the experiments were carried out in triple repetitions; p < 0.01.

cancer cell lines = experiment: Cytotoxic action against cancer cell lines (summary in words); format: cell-based, human; settings: cancer cell lines HL-60, MCF-7, T-47D, MDA-MB-231
Method: All the substances were tested in concentrations from 0.1 µM to 50 µM. Cisplatin was used as positive control. The cell suspension (180 µL) and solutions (20 µL) of tested glycosides in different concentrations were injected in wells of 96-well plates (MCF-7, T-47D, MDA-MB-231, and HEK293—7 × 10^3 cells/well) and incubated at 37 °C for 24 h in an atmosphere with 5% CO2. Glycosides 1 and 2, cucumarioside A0-1, and okhotoside A1-1 at concentrations of 1.25–10.0 μM were incubated with MDA-MB-231 cells at 37 °C for 24, 48, and 72 h in an atmosphere with 5% CO2. After incubation, the glycosides with medium were replaced by 100 µL of fresh medium. Then, 10 µL of MTT (3-(4,5-dimethylthiazol-2-yl)-2,5-diphenyltetrazolium bromide) (Sigma-Aldrich, St. Louis, MO, USA) stock solution (5 mg/mL) was added to each well, followed by incubation of the microplate for 4 h. After this procedure, 100 µL of SDS-HCl solution (1 g SDS/10 mL d-H2O/17 µL 6 N HCl) was added to each well and incubated for 18 h. The absorbance of the converted dye formazan was determined with a Multiskan FC microplate photometer (Thermo Fisher Scientific, Waltham, MA, USA) at 570 nm. […] The experiments were conducted in triplicate; p < 0.05.
as §1, with “triplicate. The results were presented as the percentage of inhibition that produced a reduction in absorbance after tested glycosides treatment compared to the nontreated cells (negative control); p < 0.01.” for “triplicate.”

## CO[C@@H]1[C@@H](O)[C@H](O[C@@H]2[C@@H](O)[C@H](O[C@H]3[C@H](O)[C@@H](O[C@@H]4OC[C@@H](O)[C@H](O)[C@H]4O)[C@H](O[C@H]4[C@H](O[C@H]5CC[C@]6(C)[C@@H]7CCC89C(=O)O[C@@](C)([C@H](O)C(=O)CC(C)C)[C@H]8[C@@H](OC(C)=O)C[C@@]9(C)C7=CC[C@H]6C5(C)C)OC[C@@H](OS(=O)(=O)O)[C@@H]4O)O[C@@H]3C)OC[C@H]2O)O[C@H](CO)[C@H]1O (stereo partly drawn) [djakonovioside B1 (4), 3β-O-{3-O-methyl-β-D-glucopyranosyl-(1→3)-β-D-xylopyranosyl-(1→4)-[(1→2)-β-D-xylopyranosyl]-β-D-quinovopyranosyl-(1→2)-4-O-sodium sulfate-β-D-xylopyranosyl}-16β-acetoxy,22S-hydroxy,23-oxo-holost-7-en]
[1]
  IC50 at 24 h: 20.1 ± 0.8 µM
Human erythrocytes
  ED50, Erythrocytes: 6.03 ± 0.47 µM

## COC1C(O)C(CO)OC(OC2C(O)COC(OC3C(C)OC(OC4C(OC5CCC6(C)C7CCC89C(=O)OC%10(C)CC(O)(CC(C)C)OC(CC8(C)C7=CCC6C5(C)C)C%109)OCC(OS(=O)(=O)O)C4O)C(OC4OCC(O)C(O)C4O)C3O)C2O)C1O [djakonovioside B2 (5), 3β-O-{3-O-methyl-β-D-glucopyranosyl-(1→3)-β-D-xylopyranosyl-(1→4)-[(1→2)-β-D-xylopyranosyl]-β-D-quinovopyranosyl-(1→2)-4-O-sodium sulfate-β-D-xylopyranosyl}-holost-7-en-23R,16β-hemiketal]
[1]
  IC50 at 24 h: 38.6 ± 1.05 µM
Cancer cell lines
  Activity against cancer cells (in words): inactive
Human erythrocytes
  Hemolytic action (in words): moderately hemolytic
  ED50, Erythrocytes: 16.34 ± 0.34 µM
